Laboratory results: US10927078B2, “Modulators of indoleamine 2,3-dioxygenase” (GLAXOSMITHKLINE INTELLECTUAL PROPERTY DEVELOPMENT LIMITED, priority 2017, dated 2021)

Assays:
[1] = target: indoleamine 2, 3-dioxygenase (IDO1) (Homo sapiens, UniProt P14902); assay: PBMC IDO1 assay (kynurenine via mass spectrometry); assay type: cell-based; conditions: human PBMC stimulated with IFN-γ and LPS, 2 days, kynurenine by mass spectrometry; recorded as pIC50; read-out: PBMC PXC50_ (converted)
Procedure, shortened: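 Human PBMCs (50,000/well) stimulated with IFN-γ 100 ng/ml and LPS 50 ng/ml to induce IDO1, exposed to 11-point 3-fold compound dilutions for 2 days at 37° C. Supernatant kynurenine measured by RapidFire MS relative to internal standard; XC50 from four-parameter fit. Cytotoxicity tracked in parallel by ATP luminescence.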

PAN02 pancreatic cells = conditions: orally dosed, cited from earlier work
[2] = test system: conversion of T cells into CD4+FoxP3+ Tregs; conditions: co-culture of DCs and naive CD4+CD25- T cells; cited from earlier work

Chain of indoleamine 2, 3-dioxygenase (IDO1) (P14902 whole entry): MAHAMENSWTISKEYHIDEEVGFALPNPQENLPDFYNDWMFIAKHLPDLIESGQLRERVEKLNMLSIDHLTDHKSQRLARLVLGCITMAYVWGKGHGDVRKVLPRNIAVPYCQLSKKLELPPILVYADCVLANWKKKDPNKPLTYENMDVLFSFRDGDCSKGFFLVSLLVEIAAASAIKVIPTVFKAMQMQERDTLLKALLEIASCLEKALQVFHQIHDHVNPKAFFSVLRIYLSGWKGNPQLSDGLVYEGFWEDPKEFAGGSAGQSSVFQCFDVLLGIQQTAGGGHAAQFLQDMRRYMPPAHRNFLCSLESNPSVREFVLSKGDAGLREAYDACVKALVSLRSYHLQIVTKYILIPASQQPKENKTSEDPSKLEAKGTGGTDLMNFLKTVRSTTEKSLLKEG

Compound | IC50 [1] [nM] | other results
COc1c(F)cccc1OC(=O)N1CCC([C@@H](CC(C)C)NC(=O)c2ccc(F)cc2)CC1 [Example 106, (R)-3-fluoro-2-methoxyphenyl 4-(1-(4-fluorobenzamido)-3-methylbutyl)piperidine-1-carboxylate] | 1.58 | 
Cc1ncnc(C)c1OC(=O)N1CCC([C@@H](CC(C)C)NC(=O)c2ccc(Cl)cc2)CC1 [Example 107, (R)-4,6-dimethylpyrimidin-5-yl 4-(1-(4-chlorobenzamido)-3-methylbutyl)piperidine-1-carboxylate] | 1.58 | 
CC(C)C[C@@H](NC(=O)c1cccc2cn[nH]c12)C1CCN(C(=O)Oc2ccccc2)CC1 [Example 109, (R)-phenyl 4-(1-(1H-indazole-7-carboxamido)-3-methylbutyl)piperidine-1-carboxylate] | 6.31 | 
CC(C)CC(NC(=O)c1cccc2cn[nH]c12)C1CCN(C(=O)Oc2ccccc2)CC1 (stereo not drawn) [Example 110, phenyl 4-(1-(1H-indazole-7-carboxamido)-3-methylbutyl)piperidine-1-carboxylate] | 12.6 | 
COc1ccc([C@@H](NC(=O)c2ccc(Cl)cc2)C2CCN(C(=O)Oc3ccccc3)CC2)cn1 [Example 111, (S)-phenyl 4-((4-chlorobenzamido)(6-methoxypyridin-3-yl)methyl)piperidine-1-carboxylate] | 63.1 | 
Cc1ncnc(C)c1OC(=O)N1CCC([C@@H](NC(=O)c2ccc(Cl)s2)C2CC2)CC1 [Example 112, (S)-4,6-dimethylpyrimidin-5-yl 4-((5-chlorothiophene-2-carboxamido)(cyclopropyl)methyl)piperidine-1-carboxylate] | 10 | 
NS(=O)(=O)NCCNc1nonc1C(=NO)Nc1ccc(F)c(Br)c1 [INCB204360] |  | inhibition of tumor growth (PAN02 pancreatic cells; immunocompetent mice): significant dose-dependent inhibition of tumor growth; effect against the same tumor (PAN02 pancreatic cells; tumor implanted in immune-deficient mice): without effect; conversion of T cells into CD4+FoxP3+ Tregs [2]: blocked the conversion
